The values that follow come from patent US5654398A, “Compositions and methods for inhibiting replication of human immunodeficiency virus-1” (priority 1993, dated 1997).

The target of one series is mutant (C46-G74) IIB RNA. The class given is binding, HIV-1. The settings on record: for Kd: read-out: Knonsp (apparent Kd, mutant IIB RNA). As for the experimental part: (§1) Gel shift assays were performed at 4° C. unless described otherwise. Peptide and RNA were incubated together for 15 min on ice in 10 μl binding reactions containing 10 mM HEPES-KOH, pH 7.5, 100 mM KCl, 1 mM MgCl2, 0.5 mM EDTA, 1 mM dithithreitol, 50 μg/ml E. coli tRNA, and 10% glycerol. To determine relative binding affinities, 0.5 nM radiolabeled IIB RNA (or IIB mutant) was titrated with peptide. Peptide-RNA complexes were resolved in 10% polyacrylamide, 0.5x TBE gels that had been prerun for 1 hr and allowed to cool to 4° C. Gels were electrophoresed at 220 V for 3 hr at 4° C., dried, and autoradiographed.
(§2) FIG. 3C. Relationship between helix content of the Rev34-50 peptides and RNA-binding specificity. Apparent Kd s (the peptide concentration at which 50% of the RNA was shifted) were determined for wild-type (specific; Ksp) and mutant (nonspecific; Knonsp) IIB RNAs from the date in FIGS. 3A and 3B. Specificity, the ratio of specific to nonspecific apparent association constants (Ka s) is plotted against the helix content for each peptide, determined from the CD ellipticity at 222 nm (Chen et al., (1974) "Determination of the Helix and Beta Form of Proteins in Aqueous Solution by Circular Dichroism" Biochemistry 13:3350-3359 ) Peptide I: helix=0.1%; ksp =2000 nM; Knonsp =3000 nM. Peptide II: helix=3.9%; Ksp =300 nM; Knonsp =2000 nM. Peptide III: helix=10.9%; Ksp =100 nM; Knonsp =2000 nM. Peptide IV: helix=27.9%; Ksp =40 nM; Knonsp =2000 nM. Peptide V: helix=51.2%; Ksp =20 nM; Knonsp 1500 nM.

In another series the target is wild-type RRE IIB RNA. Type of series: binding, HIV-1. The following applies: for Kd: read-out: Ksp (apparent Kd, wild-type IIB RNA). On the procedure:
as §1, §2

Series [1] can be described thus: Circular dichroism, α-helix content. Type of series: physicochemical. The following applies: for % Helix (α-helix content): from CD ellipticity at 222 nm, 4° C., pH 7.5. On the procedure: CD spectra were measured using an Aviv model 62DS spectropolarimeter. Samples were prepared in 10 mM potassium phosphate buffer, pH 7.5 and 100 mM KF, and temperature was maintained at 4° C. unless described otherwise. Spectra were recorded from 320 nm to 190 nm using a 1 cm pathlength cuvette and the signal was averaged for 10 sec. Scans were repeated five times and averaged. Peptide concentrations were typically 5-20 μM and ellipticity was calculated per amino acid residue.
as §2
Background: Circular dichroism is widely used to follow secondary structure.

The test system of series [2] is IIB RNA mutant A71 (G71 to A71). As to the kind of experiment: RNA-binding gel shift assay, A71 mutant IIB RNA. The following applies: in the presence of tRNA. Details: species or system HIV-1. On the procedure: as §1
(§3) FIG. 1B. Peptide binding to IIB mutants. Binding reactions were carried out in the presence of tRNA at the peptide concentrations indicated, and free RNA and peptide-RNA complexes were resolved by the gel shift assay. Each pair of lanes corresponds to RNA alone and peptide-RNA binding reactions. […]. The wild-type lanes on both sides of the gel are identical. The slower mobility of the A71 mutant in the absence of peptide may indicate that its unbound conformation is different than wild-type IIB. […] This phenomenon has been seen with other mutant RNAs and with mutant Rev peptides, and has been interpreted as differences in RNA conformation between specific and nonspecific complexes (Kjems et al. (1992), supra).
(In EMSA bound probe runs differently from free probe, usually more slowly.)

Series [3] concerns IIB RNA mutant A47 (G47 to A47). Briefly: RNA-binding gel shift assay, A47 mutant IIB RNA. The following applies: in the presence of tRNA. Details: species or system HIV-1. On the procedure: as §1, §3

“Also recorded” adds a separate entry of the source. Residues, ends and D or L forms follow the SMILES beside them.

For `C[C@H](NC(=O)[C@H](CCC(N)=O)NC(=O)[C@H](CCCNC(=N)N)NC(=O)[C@@H](N)[C@@H](C)O)C(=O)N[C@@H](CCCNC(=N)N)C(=O)N[C@@H](CCCNC(=N)N)C(=O)N[C@@H](CC(N)=O)C(=O)N[C@@H](CCCNC(=N)N)C(=O)N[C@@H](CCCNC(=N)N)C(=O)N[C@@H](CCCNC(=N)N)C(=O)N[C@@H](CCCNC(=N)N)C(=O)N[C@@H](Cc1c[nH]c2ccccc12)C(=O)N[C@@H](CCCNC(=N)N)C(=O)N[C@@H](CCC(=O)O)C(=O)N[C@@H](CCCNC(=N)N)C(=O)N[C@@H](CCC(N)=O)C(=O)N[C@@H](CCCNC(=N)N)C(N)=O` [Peptide II, N-Rev34-50 --am] (H-TRQARRNRRRRWRERQR-NH2), the Kd at mutant (C46-G74) IIB RNA was determined as 2000 nM; at wild-type RRE IIB RNA it was 300 nM. Also, the “% Helix (α-helix content)” value is 3.9% in series [1] and “approximately 4%” in series [1] (listed as N-Rev34-50 --am).
In the case of `CC(=O)N[C@H](C(=O)N[C@@H](CCCNC(=N)N)C(=O)N[C@@H](CCC(N)=O)C(=O)N[C@@H](C)C(=O)N[C@@H](CCCNC(=N)N)C(=O)N[C@@H](CCCNC(=N)N)C(=O)N[C@@H](CC(N)=O)C(=O)N[C@@H](CCCNC(=N)N)C(=O)N[C@@H](CCCNC(=N)N)C(=O)N[C@@H](CCCNC(=N)N)C(=O)N[C@@H](CCCNC(=N)N)C(=O)N[C@@H](Cc1c[nH]c2ccccc12)C(=O)N[C@@H](CCCNC(=N)N)C(=O)N[C@@H](CCC(=O)O)C(=O)N[C@@H](CCCNC(=N)N)C(=O)N[C@@H](CCC(N)=O)C(=O)N[C@@H](CCCNC(=N)N)C(N)=O)[C@@H](C)O` [Peptide III] (Ac-TRQARRNRRRRWRERQR-NH2), the figures for the Kd on mutant (C46-G74) IIB RNA and on wild-type RRE IIB RNA were 2000 nM and 100 nM, respectively. In addition, the “% Helix (α-helix content)” value in series [1] was 10.9%.
Regarding `C[C@H](NC(=O)[C@H](CCC(N)=O)NC(=O)[C@H](CCCNC(=N)N)NC(=O)[C@@H](N)[C@@H](C)O)C(=O)N[C@@H](CCCNC(=N)N)C(=O)N[C@@H](CCCNC(=N)N)C(=O)N[C@@H](CC(N)=O)C(=O)N[C@@H](CCCNC(=N)N)C(=O)N[C@@H](CCCNC(=N)N)C(=O)N[C@@H](CCCNC(=N)N)C(=O)N[C@@H](CCCNC(=N)N)C(=O)N[C@@H](Cc1c[nH]c2ccccc12)C(=O)N[C@@H](CCCNC(=N)N)C(=O)N[C@@H](CCC(=O)O)C(=O)N[C@@H](CCCNC(=N)N)C(=O)N[C@@H](CCC(N)=O)C(=O)N[C@@H](CCCNC(=N)N)C(=O)O` [Peptide I] (H-TRQARRNRRRRWRERQR-OH), the Kd at mutant (C46-G74) IIB RNA amounted to 3000 nM. In the series on wild-type RRE IIB RNA, the “specific RNA binding / discrimination between wild-type and mutant IIB RNAs (in words)” value is “binds only slightly better to wild-type IIB than to the mutant RNA; also recorded: essentially unable to discriminate between wild-type and mutant RNAs”; the Kd came to 2000 nM. Moreover, the “α-helix content by CD (in words)” value in series [1] (CD spectra) is given as “mostly unstructured”. For the same compound, the “% Helix (α-helix content)” value in series [1] is given as 0.1%.
For `C[C@H](NC(=O)[C@H](CCC(N)=O)NC(=O)[C@H](CCCNC(=N)N)NC(=O)[C@@H](N)[C@@H](C)O)C(=O)N[C@@H](CCCNC(=N)N)C(=O)N[C@@H](CCCNC(=N)N)C(=O)N[C@@H](CC(N)=O)C(=O)N[C@@H](CCCNC(=N)N)C(=O)N[C@@H](CCCNC(=N)N)C(=O)N[C@@H](CCCNC(=N)N)C(=O)N[C@@H](CCCNC(=N)N)C(=O)N[C@@H](Cc1c[nH]c2ccccc12)C(=O)N[C@@H](CCCNC(=N)N)C(=O)N[C@@H](CCC(=O)O)C(=O)N[C@@H](CCCNC(=N)N)C(=O)N[C@@H](CCC(N)=O)C(=O)N[C@@H](CCCNC(=N)N)C(N)=O` [Rev34-50] (H-TRQARRNRRRRWRERQR-NH2), the “Reduction of affinity compared to wild-type IIB” value in the series with mutant (C46-G74) IIB RNA (C46-G74 base pair mutant, in the presence of tRNA) was “about 10 fold”; in series [2], “about 10 fold”; in series [3] it was “about 10 fold”.
